In US8536202B2, “Triazole-substituted anthranilamides as pesticides” (Bayer Cropscience AG, priority 2010, dated 2013):
Read-outs that look alike come from different tables or passages of the source.

Experiments:
[1] = system: larvae of the mustard beetle (Phaedon cochleariae); assay: Phaedon test (PHAECO spray treatment); type: in vivo; conditions: 168 h, read-out: activity in %
Procedure, shortened: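 Mortality of mustard beetle larvae, expressed as percent killed (100% all, 0% none), assessed 7 days after spraying. Spray liquor made from compound in acetone plus dimethylformamide with alkylaryl polyglycol ether, diluted in emulsifier-containing water to the desired concentration.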

[2] = log P determination by HPLC on reversed-phase columns (EEC Directive 79/831 Annex V.A8); type: physicochemical; conditions: pH 2.7
Procedure, shortened: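 Calibration used unbranched alkan-2-ones of 3 to 16 carbons with known log P, values interpolated linearly from retention times between neighbouring standards. Acidic-range LC-MS run at pH 2.7, eluents aqueous and acetonitrile formic acid 0.1%, linear gradient 10% to 95% acetonitrile.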

[3] = system: caterpillars of the armyworm (Spodoptera frugiperda); assay: Spodoptera frugiperda test (SPODFR spray treatment); type: in vivo; conditions: 168 h, read-out: activity in %
Procedure, shortened: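 Percent caterpillar mortality read 7 days after infestation (0% none killed, 100% all killed). Treatment was a spray of the acetone/DMF/emulsifier formulation, water-diluted to test concentration, onto Zea mays leaf discs, allowed to dry before larvae were added.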

[4] = reversed-phase C18 HPLC column, HPLC on reversed-phase columns (C 18), EEC Directive 79/831 Annex V.A8, read-out: logP
[5] = HPLC on reversed-phase columns (C 18), EEC Directive 79/831 Annex V.A8, read-out: logP

Row | SMILES | pest or weed control at 100 g/ha ([1]; 100 g/ha, after 7 days) [%] | chromatographic logP [2] | pest or weed control at 100 g/ha ([3]; 100 g/ha, after 7 days) [%] | chromatographic logP [2, 4] | pest or weed control at 100 g/ha [1] [%] | chromatographic logP [2, 5] | pest or weed control at 100 g/ha [3] [%]
1 | NC(=O)c1cc(Cl)cc(Cl)c1NC(=O)c1cc(Cn2ncc(C(F)(C(F)(F)F)C(F)(F)F)n2)nn1-c1ncccc1Cl [Example 279] | 100 | 3.46 | 100 | – | – | – | –
2 | O=C(NC1CC1)c1cc(Cl)cc(Cl)c1NC(=O)c1cc(Cn2ncc(C(F)(C(F)(F)F)C(F)(F)F)n2)nn1-c1ncccc1Cl [Example 280] | 100 | 3.92 | 100 | – | – | – | –
3 | Cc1cc(C#N)cc(C(=O)NC2(C3CC3)CC2)c1NC(=O)c1cc(Cn2ncc(C(F)(C(F)(F)F)C(F)(F)F)n2)nn1-c1ncccc1Cl [Example 283] | 100 | – | 100 | 4.12 | – | – | –
4 | Cc1cc(C#N)cc(C(=O)NC(C)(C)C)c1NC(=O)c1cc(Cn2ncc(C(F)(F)F)n2)nn1-c1ccccc1Cl [Example 285] | 100 | – | 100 | 3.93 | – | – | –
5 | CNC(=O)c1cc(Cl)cc(C)c1NC(=O)c1cc(Cn2ncc(C(F)(F)F)n2)nn1-c1ccccc1Cl [Example 287] | 100 | – | 100 | 3.45 | – | – | –
6 | Cc1cc(C#N)cc(C(=O)NC(C)C)c1NC(=O)c1cc(Cn2cc(C(F)(F)F)nn2)nn1-c1ccccc1Cl [Example 290] | 100 | – | 100 | 3.17 | – | – | –
7 | CNC(=O)c1cc(C#N)cc(C)c1NC(=O)c1cc(Cn2cc(C(F)(C(F)(F)F)C(F)(F)F)nn2)nn1-c1ccccc1Cl [Example 295] | 100 | – | 100 | 3.46 | – | – | –
8 | Cc1cc(C#N)cc(C(=O)NC2CC2)c1NC(=O)c1cc(Cn2cc(C(F)(F)F)nn2)nn1-c1ccccc1Cl [Example 296] | 100 | – | 100 | 2.93 | – | – | –
9 | CNC(=O)c1cc(C#N)cc(C)c1NC(=O)c1cc(Cn2ncc(C(F)(C(F)(F)F)C(F)(F)F)n2)nn1-c1ccccc1Cl [Example 297] | 100 | – | 100 | 3.88 | – | – | –
10 | Cc1cc(I)cc(C(=O)NC2CC2)c1NC(=O)c1cc(Cn2cc(C(F)(F)C(F)(F)F)nn2)nn1-c1ncccc1Cl [Example 310] | 100 | 3.49 | 100 | – | – | – | –
11 | CCNC(=O)c1cc(I)cc(C)c1NC(=O)c1cc(Cn2cc(C(F)(F)C(F)(F)F)nn2)nn1-c1ncccc1Cl [Example 311] | 100 | 3.49 | 100 | – | – | – | –
12 | Cc1cc(I)cc(C(=O)NC(C)C)c1NC(=O)c1cc(Cn2cc(C(F)(F)C(F)(F)C(F)(F)F)nn2)nn1-c1ncccc1Cl [Example 322] | – | – | – | – | 100 | 4.07 | 100
13 | Cc1cc(I)cc(C(=O)NC2CC2)c1NC(=O)c1cc(Cn2cc(C(F)(F)C(F)(F)C(F)(F)F)nn2)nn1-c1ncccc1Cl [Example 323] | – | – | – | – | 100 | 3.82 | 100
14 | Cc1cc(I)cc(C(=O)NCC2CC2)c1NC(=O)c1cc(Cn2cc(C(F)(F)C(F)(F)C(F)(F)F)nn2)nn1-c1ncccc1Cl [Example 333] | – | – | – | – | 100 | 4.13 | 100
15 | Cc1cc(I)cc(C(=O)NC(C)(C)C)c1NC(=O)c1cc(Cn2cc(C(F)(F)C(F)(F)C(F)(F)F)nn2)nn1-c1ncccc1Cl [Example 334] | – | – | – | – | 100 | 4.42 | 100
16 | CCNC(=O)c1cc(I)cc(C)c1NC(=O)c1cc(Cn2cc(C(F)(F)C(F)(F)C(F)(F)F)nn2)nn1-c1ncccc1Cl [Example 335] | – | – | – | – | 100 | 3.83 | 100
17 | Cc1cc(I)cc(C(=O)NC(C)C2CC2)c1NC(=O)c1cc(Cn2cc(C(F)(F)C(F)(F)C(F)(F)F)nn2)nn1-c1ncccc1Cl (stereo not drawn) [Example 336] | – | – | – | – | 100 | 4.36 | 100
18 | Cc1cc(I)cc(C(=O)NCC2CC2)c1NC(=O)c1cc(Cn2ncc(C(F)(F)C(F)(F)F)n2)nn1-c1ncccc1Cl [Example 345] | 100 | 4.22 | 100 | – | – | – | –
19 | Cc1cc(I)cc(C(=O)NC(C)C)c1NC(=O)c1cc(Cn2ncc(C(F)(F)C(F)(F)F)n2)nn1-c1ncccc1Cl [Example 346] | 100 | 4.15 | 100 | – | – | – | –

Row | SMILES | pest or weed control at 100 g/ha ([1]; 100 g/ha, after 7 days) [%] | chromatographic logP [2] | pest or weed control at 100 g/ha ([3]; 100 g/ha, after 7 days) [%] | chromatographic logP [2, 4] | pest or weed control at 100 g/ha [1] [%] | chromatographic logP [2, 5] | pest or weed control at 100 g/ha [3] [%]
20 | Cc1cc(I)cc(C(=O)NC2CC2)c1NC(=O)c1cc(Cn2ncc(C(F)(F)C(F)(F)F)n2)nn1-c1ncccc1Cl [Example 347] | 100 | 3.86 | 100 | – | – | – | –
21 | Cc1cc(Cl)cc(C(=O)NC(C)C2CC2)c1NC(=O)c1cc(Cn2ncc(C(F)(F)C(F)(F)F)n2)nn1-c1ncccc1Cl (stereo not drawn) [Example 351] | 100 | 4.21 | 100 | – | – | – | –
22 | Cc1cc(I)cc(C(N)=O)c1NC(=O)c1cc(Cn2ncc(C(F)(F)C(F)(F)F)n2)nn1-c1ncccc1Cl [Example 354] | 100 | 3.33 | 100 | – | – | – | –
23 | CCNC(=O)c1cc(I)cc(C)c1NC(=O)c1cc(Cn2ncc(C(F)(F)C(F)(F)F)n2)nn1-c1ncccc1Cl [Example 355] | 100 | 3.89 | 100 | – | – | – | –
24 | Cc1cc(I)cc(C(=O)NC(C)C2CC2)c1NC(=O)c1cc(Cn2ncc(C(F)(F)C(F)(F)F)n2)nn1-c1ncccc1Cl (stereo not drawn) [Example 357] | 100 | 4.45 | 100 | – | – | – | –
25 | Cc1cc(Cl)cc(C(=O)NCC2CC2)c1NC(=O)c1cc(Cn2ncc(C(F)(F)C(F)(F)C(F)(F)F)n2)nn1-c1ncccc1Cl [Example 366] | – | – | – | – | 100 | 4.34 | 100
26 | CCNC(=O)c1cc(Cl)cc(C)c1NC(=O)c1cc(Cn2ncc(C(F)(F)C(F)(F)C(F)(F)F)n2)nn1-c1ncccc1Cl [Example 367] | – | – | – | – | 100 | 4.03 | 100
27 | CCNC(=O)c1cc(I)cc(C)c1NC(=O)c1cc(Cn2ncc(C(F)(F)C(F)(F)C(F)(F)F)n2)nn1-c1ncccc1Cl [Example 369] | – | – | – | – | 100 | 4.28 | 100
28 | Cc1cc(Cl)cc(C(=O)NC2CC2)c1NC(=O)c1cc(Cn2ncc(C(F)(F)C(F)(F)C(F)(F)F)n2)nn1-c1ncccc1Cl [Example 370] | – | – | – | – | 100 | 3.99 | 100
29 | Cc1cc(I)cc(C(=O)NC(C)C)c1NC(=O)c1cc(Cn2ncc(C(F)(F)C(F)(F)C(F)(F)F)n2)nn1-c1ncccc1Cl [Example 371] | – | – | – | – | 100 | 4.46 | 100
30 | Cc1cc(C#N)cc(C(=O)NC2CC2)c1NC(=O)c1cc(Cn2ncc(C(F)(F)C(F)(F)C(F)(F)F)n2)nn1-c1ncccc1Cl [Example 376] | – | – | – | – | 100 | 3.63 | 100
31 | CNC(=O)c1cc(I)cc(C)c1NC(=O)c1cc(Cn2ncc(C(F)(F)C(F)(F)C(F)(F)F)n2)nn1-c1ncccc1Cl [Example 377] | – | – | – | – | 100 | 4 | 100
32 | Cc1cc(Cl)cc(C(=O)NC(C)C)c1NC(=O)c1cc(Cn2ncc(C(F)(F)C(F)(F)C(F)(F)F)n2)nn1-c1ncccc1Cl [Example 378] | – | – | – | – | 100 | 4.27 | 100
33 | Cc1cc(Cl)cc(C(=O)NC(C)C2CC2)c1NC(=O)c1cc(Cn2ncc(C(F)(F)C(F)(F)C(F)(F)F)n2)nn1-c1ncccc1Cl (stereo not drawn) [Example 379] | – | – | – | – | 100 | 4.57 | 100
34 | Cc1cc(I)cc(C(=O)NCC2CC2)c1NC(=O)c1cc(Cn2ncc(C(F)(F)C(F)(F)C(F)(F)F)n2)nn1-c1ncccc1Cl [Example 382] | – | – | – | – | 100 | 4.59 | 100
35 | Cc1cc(I)cc(C(=O)NC(C)(C)C)c1NC(=O)c1cc(Cn2ncc(C(F)(F)C(F)(F)C(F)(F)F)n2)nn1-c1ncccc1Cl [Example 385] | – | – | – | – | 100 | 4.89 | 100
36 | Cc1cc(I)cc(C(=O)NC(C)C2CC2)c1NC(=O)c1cc(Cn2ncc(C(F)(F)C(F)(F)C(F)(F)F)n2)nn1-c1ncccc1Cl (stereo not drawn) [Example 386] | – | – | – | – | 100 | 4.82 | 100
37 | CSC[C@H](C)NC(=O)c1cc(I)cc(C)c1NC(=O)c1cc(Cn2nc(C(F)(F)F)c(C(F)(F)F)n2)nn1-c1ncccc1Cl [Example 388] | 100 | 4.64 | 100 | – | – | – | –
38 | CCNC(=O)c1cc(I)cc(C)c1NC(=O)c1cc(Cn2nc(C(F)(F)F)c(C(F)(F)F)n2)nn1-c1ncccc1Cl [Example 389] | 100 | 4.23 | 100 | – | – | – | –
